Measurements published in patent publication US20040038855A1 (priority 1999, published 2004).
Read-outs that look alike come from different tables or passages of the source.

Legend:
[1] = target: T1, human Histamine H1 receptor (Homo sapiens, UniProt P35367); test: Binding affinity at the human histamine H1 receptor
T1 construct: expressed in transfected cells
Source text: (§1) Other receptors: Cell membranes expressing human dopamine D1, D2, D4 and rat D3 receptors were purchased through BioSignal, Inc. (Montreal, Canada). Binding assays using the histamine H1 receptor; dopamine receptors; and α1A, α1B, and α2 adrenergic receptors may be carried out according to the procedures described in U.S. Pat. No. 5,780,485, the disclosure of which is hereby incorporated by reference in its entirety into this application. Binding assays using the dopamine D5 receptor may be carried out according to the procedures described in U.S. Pat. No. 5,882,855, the disclosure of which is hereby incorporated by reference in its entirety into this application. Binding assays for the human α1D adrenergic receptor may be carried out according to the procedures described in U.S. Pat. No. 6,156,518, the disclosure of which is hereby incorporated by reference in its entirety into this application.

[2] = target: T2, human Alpha-1a Adrenergic receptor (Homo sapiens, UniProt P35348); test: Binding affinity at the human alpha-1A adrenergic receptor; conditions: Table 3c; read-out: hAlpha-1a Ki
T2 construct: expressed in transfected cells
T2 sequence (P35348 1-466): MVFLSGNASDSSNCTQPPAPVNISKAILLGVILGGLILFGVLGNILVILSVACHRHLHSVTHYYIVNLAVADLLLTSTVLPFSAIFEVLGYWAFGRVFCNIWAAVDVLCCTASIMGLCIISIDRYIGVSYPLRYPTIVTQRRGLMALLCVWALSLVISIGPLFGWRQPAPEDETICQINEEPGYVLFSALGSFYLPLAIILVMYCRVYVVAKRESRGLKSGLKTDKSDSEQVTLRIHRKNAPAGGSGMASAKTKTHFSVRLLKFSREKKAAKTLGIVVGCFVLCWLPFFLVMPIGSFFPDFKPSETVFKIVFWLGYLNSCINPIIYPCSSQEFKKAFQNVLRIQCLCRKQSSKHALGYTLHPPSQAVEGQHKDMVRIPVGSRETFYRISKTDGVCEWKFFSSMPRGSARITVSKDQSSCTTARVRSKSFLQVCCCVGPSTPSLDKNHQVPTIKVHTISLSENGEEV
Source text: as §1

rat MCH1 receptor = target: T3, rat MCH1 receptor (Rattus norvegicus, UniProt P97639); test: Binding affinity (Ki) at the rat MCH1 receptor
T3 construct: expressed in transfected cells
Experimental: For binding assays, pellets of transfected cells are suspended in ice-cold buffer (20 mM Tris.HCl, 5 mM EDTA, pH 7.4) and homogenized by sonication for 7 sec. The cell lysates are centrifuged at 200×g for 5 min at 4° C. The supernatants are then centrifuged at 40,000×g for 20 min at 4° C. The resulting pellets are washed once in the homogenization buffer and suspended in binding buffer (see methods for radioligand binding). Protein concentrations are determined by the method of Bradford (1976) using bovine serum albumin as the standard. Binding assays are usually performed immediately, however it is possible to prepare membranes in batch and store frozen in liquid nitrogen for future use.
Binding is performed at 25° C. for 1 hr. Incubations are terminated by rapid vacuum filtration over GF/C glass fiber filters, presoaked in 5% PEI using 50 mM Tris pH 7.4 containing 0.01% triton X-100 as wash buffer.
A methanolic solution of methyl (4S)-3-({[3-(4-[3-(acetylamino)phenyl]-3,6-dihydro-1(2H)pyridinyl)propyl]amino}carbonyl)-4-(3,4-difluorophenyl)-6-(methoxymethyl)-2-oxo-1,2,3,4-tetrahydro-5-pyrimidinecarboxylate was exposed to tritium gas at 1 atmosphere pressure in the presence of 5% palladium on carbon with stirring overnight to give the tritiated methyl (4S)-3-{[(3-{4-[3-(acetylamino)phenyl]-1-piperidinyl}propyl)amino]carbonyl}-4-(3,4-difluorophenyl)-6-(methoxymethyl)-2-oxo-1,2,3,4-tetrahydro-5-pyrimidinecarboxylate ((+)-isomer) After purification by reverse phase HPLC (Hypersil ODS, 4.6×100 mm, methanol:H2O:Et3N 10:90:1 to 100:0:1 in 15 min at 1.0 mL/min, with radiochemical and UV detection), this product was used as a radioligand in the MCH1 binding assays. The same procedure was carried out with H2 gas in place of ^3H2 to afford the non-radioactive version of Compound 10.

[3] = target: T4, human Dopamine D2 receptor (Homo sapiens, UniProt P14416); test: Binding affinity at the human dopamine D2 receptor; conditions: Table 3c; read-out: hD2 Ki
T4 construct: purchased BioSignal, Inc. (Montreal, Canada)
Source text: as §1

[4] = Examples 38-141, read-out: Ki (nM) rMCH1

T3 sequence (P97639 whole entry): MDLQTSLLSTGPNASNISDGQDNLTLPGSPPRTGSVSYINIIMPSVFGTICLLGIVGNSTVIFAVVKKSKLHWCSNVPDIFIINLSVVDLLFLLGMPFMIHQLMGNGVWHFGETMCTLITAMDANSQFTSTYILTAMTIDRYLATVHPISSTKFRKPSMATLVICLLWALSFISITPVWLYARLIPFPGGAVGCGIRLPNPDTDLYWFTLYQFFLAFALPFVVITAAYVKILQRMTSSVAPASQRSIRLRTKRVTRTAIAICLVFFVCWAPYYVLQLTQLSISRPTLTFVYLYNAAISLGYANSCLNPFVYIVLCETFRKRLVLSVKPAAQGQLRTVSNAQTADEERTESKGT
T1 sequence (P35367 whole entry): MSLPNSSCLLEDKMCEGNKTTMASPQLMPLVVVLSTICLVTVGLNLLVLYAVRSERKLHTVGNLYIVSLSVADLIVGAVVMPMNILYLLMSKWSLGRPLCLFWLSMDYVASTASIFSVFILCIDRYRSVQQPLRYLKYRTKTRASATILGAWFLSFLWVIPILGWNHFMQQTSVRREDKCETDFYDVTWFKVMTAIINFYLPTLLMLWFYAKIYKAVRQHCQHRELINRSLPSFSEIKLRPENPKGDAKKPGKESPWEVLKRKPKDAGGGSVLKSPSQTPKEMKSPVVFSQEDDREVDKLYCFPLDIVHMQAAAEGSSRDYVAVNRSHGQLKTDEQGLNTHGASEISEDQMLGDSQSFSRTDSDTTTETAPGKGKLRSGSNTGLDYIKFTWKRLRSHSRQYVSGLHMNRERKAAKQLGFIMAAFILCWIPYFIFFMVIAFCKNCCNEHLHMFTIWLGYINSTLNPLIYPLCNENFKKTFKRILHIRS
T4 sequence (P14416 whole entry): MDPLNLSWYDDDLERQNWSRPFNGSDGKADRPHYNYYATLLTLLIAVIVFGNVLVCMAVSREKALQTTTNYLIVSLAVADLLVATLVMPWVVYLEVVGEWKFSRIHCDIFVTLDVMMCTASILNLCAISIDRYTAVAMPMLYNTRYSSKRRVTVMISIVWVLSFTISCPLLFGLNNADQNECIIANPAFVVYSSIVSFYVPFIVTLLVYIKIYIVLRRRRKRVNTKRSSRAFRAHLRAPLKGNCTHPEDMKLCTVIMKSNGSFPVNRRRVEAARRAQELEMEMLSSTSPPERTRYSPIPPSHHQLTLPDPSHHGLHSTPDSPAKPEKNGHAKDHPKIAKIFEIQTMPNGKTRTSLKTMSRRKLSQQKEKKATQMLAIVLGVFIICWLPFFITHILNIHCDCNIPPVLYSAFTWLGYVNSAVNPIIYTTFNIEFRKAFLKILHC

SMILES | Ki ([1]; Table 3c, read-out: hH1 Ki) | Ki [2] | Ki (rat MCH1 receptor; [4]) | Ki (rat MCH1 receptor; Table 3c, read-out: rMCH1 Ki) | Ki [3] | Ki [1] | Ki (rat MCH1 receptor) | Ki (rat MCH1 receptor; read-out: rMCH1 Ki, Table 3c)
COC(CCN1CCC(c2cccc(NC(=O)C(C)C)c2)CC1)c1ccc(Cl)cc1 (stereo not shown) [Example 91] | 2000 nM | 533 nM | 11.5 nM | 11.5 nM | 9650 nM | – | – | –
CC(C)C(=O)Nc1cccc(C2CCN(CCCCCCN3C(=O)c4ccccc4C3=O)CC2)c1 [Example 92] | 2450 nM | 1490 nM | 62 nM | 62 nM | 12000 nM | – | – | –
COC(CCN1CCC(c2cccc(NC(=O)C(C)C)c2)CC1)c1ccccc1 (stereo not shown) [Example 93] | 16700 nM | 1090 nM | 29.1 nM | 29.1 nM | 35000 nM | – | – | –
CC(C)C(=O)Nc1cccc(C2CCN(CCCCN3C(=O)c4ccccc4C3=O)CC2)c1 [Example 94] | 6590 nM | 1590 nM | 18.2 nM | 18.2 nM | > 50000 nM | – | – | –
CC(C)C(=O)Nc1cccc(C2CCN(CCCCCN3C(=O)c4ccccc4C3=O)CC2)c1 [Example 95, N-(3-{1-[5-(1,3-dioxo-1,3-dihydro-2H-isoindol-2-yl)pentyl]-4-piperidinyl]phenyl)-2-methylpropanamide] | 6400 nM | 2940 nM | 11.8 nM | 11.8 nM | > 50000 nM | – | – | –
CC(C)C(=O)Nc1cccc(C2CCN(CCCCc3ccccc3)CC2)c1 [Example 96] | 273 nM | 12.3 nM | 50 nM | 50 nM | 7450 nM | – | – | –
COC(CCN1CCC(c2cccc(NC(=O)C(C)C)c2)CC1)c1ccc(C)cc1 (stereo not shown) [Example 99] | 2560 nM | 434 nM | 12 nM | 12 nM | 10400 nM | – | – | –
CC(C)OC(CCN1CCC(c2cccc(NC(=O)C(C)C)c2)CC1)c1ccccc1 (stereo not shown) [Example 100] | 11100 nM | 704 nM | 11.5 nM | 11.5 nM | 8670 nM | – | – | –
CC(C)C(=O)Nc1cccc(C2CCN(CCCC(c3ccc(F)cc3)c3ccc(F)cc3)CC2)c1 [Example 101] | 3.4 nM | 18 nM | 1.6 nM | 1.6 nM | 42.2 nM | – | – | –
CC(C)C(=O)Nc1cccc(C2CCN(Cc3cc(C(F)(F)F)cc(C(F)(F)F)c3)CC2)c1 [Example 103] | 36900 nM | > 50000 nM | 52 nM | 52 nM | > 50000 nM | – | – | –
COc1ccc(O[C@H](CCN2CCC(c3cccc(NC(=O)C(C)C)c3)CC2)c2ccccc2)cc1OC [Example 104] | 6390 nM | 452 nM | 6.7 nM | 6.7 nM | 735 nM | – | – | –
CC(C)C(=O)Nc1cccc(C2CCN(CC[C@H](Oc3ccccc3)c3ccccc3)CC2)c1 [Example 105] | – | 140 nM | – | – | 471 nM | 39.1 nM | 7.1 nM | 7.1 nM
COc1ccc(O[C@@H](CCN2CCC(c3cccc(NC(=O)C(C)C)c3)CC2)c2ccccc2)cc1 [Example 106] | 304 nM | 161 nM | 3.9 nM | 3.9 nM | 1080 nM | – | – | –
CC(C)C(=O)Nc1cccc(C2CCN(CC[C@H](Oc3cccc(Cl)c3)c3ccccc3)CC2)c1 [Example 107] | 130 nM | 33.5 nM | 3.1 nM | 3.1 nM | 152 nM | – | – | –
CC(C)C(=O)Nc1cccc(C2CCN(CC[C@H](Oc3ccc(Cl)cc3)c3ccccc3)CC2)c1 [Example 108] | 264 nM | 13.2 nM | 3.8 nM | 3.8 nM | 244 nM | – | – | –
CC(C)C(=O)Nc1cccc(C2CCN(CC[C@H](Oc3ccc(C(F)(F)F)cc3)c3ccccc3)CC2)c1 [Example 109] | 1320 nM | 221 nM | 7.1 nM | 7.1 nM | 191 nM | – | – | –
CC(C)C(=O)Nc1cccc(C2CCN(CC[C@@H](Oc3cc(F)ccc3F)c3ccccc3)CC2)c1 [Example 110] | 283 nM | 187 nM | 4.9 nM | 4.9 nM | 83 nM | – | – | –
